Reference: patent US20240294545A1 (CSPC Zhongqi Pharmaceutical Technology (Shijiazhuang) Co., …, priority 2020, published 2024)
Where two headings read alike, the source gives them in different places. Marks after values point to notes of the source that are not given here.

Experiments:
ATM-phosphorylated KAP1 = test: Intracellular ATM-phosphorylated KAP1 level, ICW assay in MCF7 cells; type: cell-based, Human; settings: MCF7 cells, 2 h compound, 10 Gy irradiation, further 1 h, read-out: pKAP1 IC50
Description: 4 Inhibition on Intracellular ATM-Phosphorylated KAP1 Level by the Compounds of the Present Disclosure: ICW Assay
• Cell: Human breast cancer cell line MCF7 • Materials and reagents:
4.2 Experimental Procedures
• (1) Cell inoculation • MCF7 cells were inoculated on a 384-well plate, 10000 cells/well (25 μL/well), and cultured overnight at 37° C. with 5% CO2. • (2) Activity detection • 1) The compound was formulated into a 100 mM solution with DMSO and then sequentially diluted with a gradient of 1:3 to yield a total of 10 concentration gradients, wherein the maximum concentration was 100 μM. • 2) 25 nL of each of the compound solutions with gradient concentrations prepared in step 1) was added to each well of the cell plate (Corning #356663) by using I-DOT One, resulting in a final concentration of 100 nM (maximum dose). • 3) The cell plate containing compound was incubated at 37° C. with 5% CO2 for 2 h. After 2 h, the cell plate was irradiated with a dose of 10 Gy, and then further incubated for 1 h. • 4) 25 μL of 8% paraformaldehyde was added to each well, followed by incubating at room temperature for 20 min. • 5) The 8% paraformaldehyde was discarded, followed by adding 0.1% TrintonX-100 and incubating at room temperature for 30 min. • 6) Odessey blocking buffer was added at 50 μL/well, followed by incubating at room temperature for 1.5 h. • 7) The Odessey blocking buffer was discarded, and then a primary antibody (Phospho-KAP1, 1:2000 dilution) was added, followed by incubating overnight at 4° C. • 8) The primary antibody was removed, followed by washing with PBS+0.1% Tween 20 for 5 times. • 9) DNA dye DRAQ5 coated with a second antibody (IRDye 800CW Goat anti-Rabbit, 1:4000 dilution) was added, followed by incubating at room temperature for 1 h. • 10) The second antibody was removed, followed by washing with PBS+0.1% Tween 20 for 5 times. • 11) PBS+0.1% Tween 20 was sucked off with Odyssey. • (3) Data analysis • 1) the relative ratio of Channel 800/Channel 700 for each well was detected. • 2) % of KAP1 phosphorylation was calculated according to the following formula:
% of KAP1 phosphorylation=[(Ratiocmpd−(Ratio)Positive)/((Ratio)Vehicle−(Ratio)Positive]*100 • (Ratio)Positive: the mean value of the test values of each positive control well in the test cell plate; • (Ratio)Vehicle: the mean value of the test values of each negative control well in the test cell plate. • 3) the IC50 of each compound was calculated and the dose-effect curve was plotted: % of KAP1 phosphorylation and log of compound's concentration were fit by using Graphpad 8.0 so as to calculate the IC50.
[formula] • X: log of compound's concentration • Y: % of KAP1 phosphorylation

ATM = ATM (Homo sapiens (Human), UniProt Q13315); test: Caliper mobility shift assay for ATM; type: biochemical; settings: read-out: IC50 of inhibitory activity on ATM kinase
Description: 1.2 Determination of the Inhibitory Activities of Compounds on ATM: Caliper Mobility Shift Assay for ATM
To a 96-well plate, 98 μL of DMSO and 2 μL of the 10 mM stock solution were added and mixed evenly so that the concentration of the solution was 200 μM.
Based on the inhibitory rates of the compound at different concentrations, IC50 was calculated according to the formula: Y=Bottom+(Top−Bottom)/(1+(IC50/X)^HillSlope).

[1] = system: subcutaneous xenograft tumor of human glioblastoma LN-18; test: LN-18 subcutaneous xenograft, combined with radiotherapy; type: in vivo, NOG mice; settings: day 17
Description: 9 Efficacy Test of the Compounds of the Present Disclosure Combined with Radiotherapy on Inhibiting the Growth of Subcutaneous Xenograft Tumor of Human Glioblastoma LN-18
9.1 Experimental Animals: NOG Mice, SPF, Female, 18 to 22 g.
LN-18 tumor cells, DMEM medium:fetal bovine serum=95%:5%, accompanied by adding 100 U/mL penicillin and 100 μg/mL streptomycin, 37° C., 5% CO2.
LN18 tumor cells resuspended in serum-free DMEM medium were inoculated subcutaneously in the right costal region of experimental animals at 1.5*10^7/0.15 mL, and the animals were grouped when the tumor grew to 100 to 150 mm^3. Radiotherapy was performed 1 h after administration of compounds.
Tumor volume: The tumor volume was measured twice a week with a vernier caliper, and the long diameter and short diameter of tumor were measured. The tumor volume was calculated as follows: tumor volume (TV)=0.5×long diameter×short diameter^2. Tumor growth inhibitory rate (TGI %) was calculated according to the tumor volume. TVXn represents the mean tumor volume on day n of the treatment group, TVX0 represents the mean tumor volume on day 0 of the treatment group, TVMn represents the mean tumor volume on day n of the control group, and TVM0 represents the mean tumor volume on day 0 of the control group.

[2] = system: subcutaneous xenograft tumor of human colon cancer cell line HT-29; test: HT-29 subcutaneous xenograft, combined with irinotecan liposome injection; type: in vivo, NU/NU mice; settings: for inhibitory effect on tumor volume and tumor weight, in words: combined with irinotecan liposome injection, compared with AZD1390; for D 16 TGI / D 16 TV (MEAN ± SD) / Tumor weight / Tumor weight inhibitory rate: compound 25 mg/kg intragastric + irinotecan liposome 10 mg/kg ip; for D 16 TGI / D 16 TV (MEAN ± SD): day 16; for Tumor weight / Tumor weight inhibitory rate: end of test
Description: 7 Efficacy Test of the Compounds of the Present Disclosure Combined with Irinotecan Liposome Injection on Inhibiting the Growth of Subcutaneous Xenograft Tumor of Human Colon Cancer Cell Line HT-29
7.1 Experimental Animals: NU/NU Mice, SPF, Female, 20 to 30 g.
Irinotecan liposome injection (HE072), 43 mg: 10 mL, milky white liquid, batch No. B37191202, provided by Preparation Research Institute 2 from CSPC Zhongqi Pharmaceutical Technology (Shijiazhuang) Co., Ltd., diluted to an appropriate concentration with 5% glucose injection while testing.
HT-29 cell, provided by Nanjing Kebai Biotechnology Co., Ltd.; 5A culture medium:fetal bovine serum=90%:10%, 37° C., 5% CO2.
NU/NU nude mice were subcutaneously inoculated with HT-29 human colon cancer cells. When the mean tumor volume reached about 170 mm^3 (9 days after inoculation), the animals were evenly divided into groups according to the tumor volume (d0), with 6 mice in each group. 10 mg/kg of HE072 was administered intraperitoneally once a week for 1 time. Vehicle control, 25 mg/kg of A-6, 25 mg/kg of A-46, and 25 mg/kg of AZD1390 were administered intragastrically once a day, from Monday to Thursday every week except Friday to Sunday, for 1 week (4 times). The tumor volume was measured twice a week, the body weight of mouse was weighed every day, and the data were recorded. The tumor volume (TV) was calculated according to the formula: TV=½×a×b2, wherein a and b represent the long and short diameters of tumor, respectively. Tumor growth inhibitory rate TGI (%)=[1−(Ti−T0)/(Vi−V0)]×100, wherein Ti represents the mean tumor volume of a given treatment group on a certain day; TO represents the mean tumor volume of this treatment group at the beginning of administration; Vi represents the mean tumor volume of the vehicle control group on a certain day (the same day as that in Ti); V0 represents the mean tumor volume of the vehicle control group at the beginning of administration. At the end of the test (d17), the animals were sacrificed, the tumors were stripped and weighed, and the tumor weight inhibitory rates were calculated.

[3] = compound 10 mg/kg intragastric qd × 5 + IR 1 Gy
[4] = compound 20 mg/kg intragastric qd × 5 + IR 1 Gy

Sequence of ATM (Q13315 whole entry): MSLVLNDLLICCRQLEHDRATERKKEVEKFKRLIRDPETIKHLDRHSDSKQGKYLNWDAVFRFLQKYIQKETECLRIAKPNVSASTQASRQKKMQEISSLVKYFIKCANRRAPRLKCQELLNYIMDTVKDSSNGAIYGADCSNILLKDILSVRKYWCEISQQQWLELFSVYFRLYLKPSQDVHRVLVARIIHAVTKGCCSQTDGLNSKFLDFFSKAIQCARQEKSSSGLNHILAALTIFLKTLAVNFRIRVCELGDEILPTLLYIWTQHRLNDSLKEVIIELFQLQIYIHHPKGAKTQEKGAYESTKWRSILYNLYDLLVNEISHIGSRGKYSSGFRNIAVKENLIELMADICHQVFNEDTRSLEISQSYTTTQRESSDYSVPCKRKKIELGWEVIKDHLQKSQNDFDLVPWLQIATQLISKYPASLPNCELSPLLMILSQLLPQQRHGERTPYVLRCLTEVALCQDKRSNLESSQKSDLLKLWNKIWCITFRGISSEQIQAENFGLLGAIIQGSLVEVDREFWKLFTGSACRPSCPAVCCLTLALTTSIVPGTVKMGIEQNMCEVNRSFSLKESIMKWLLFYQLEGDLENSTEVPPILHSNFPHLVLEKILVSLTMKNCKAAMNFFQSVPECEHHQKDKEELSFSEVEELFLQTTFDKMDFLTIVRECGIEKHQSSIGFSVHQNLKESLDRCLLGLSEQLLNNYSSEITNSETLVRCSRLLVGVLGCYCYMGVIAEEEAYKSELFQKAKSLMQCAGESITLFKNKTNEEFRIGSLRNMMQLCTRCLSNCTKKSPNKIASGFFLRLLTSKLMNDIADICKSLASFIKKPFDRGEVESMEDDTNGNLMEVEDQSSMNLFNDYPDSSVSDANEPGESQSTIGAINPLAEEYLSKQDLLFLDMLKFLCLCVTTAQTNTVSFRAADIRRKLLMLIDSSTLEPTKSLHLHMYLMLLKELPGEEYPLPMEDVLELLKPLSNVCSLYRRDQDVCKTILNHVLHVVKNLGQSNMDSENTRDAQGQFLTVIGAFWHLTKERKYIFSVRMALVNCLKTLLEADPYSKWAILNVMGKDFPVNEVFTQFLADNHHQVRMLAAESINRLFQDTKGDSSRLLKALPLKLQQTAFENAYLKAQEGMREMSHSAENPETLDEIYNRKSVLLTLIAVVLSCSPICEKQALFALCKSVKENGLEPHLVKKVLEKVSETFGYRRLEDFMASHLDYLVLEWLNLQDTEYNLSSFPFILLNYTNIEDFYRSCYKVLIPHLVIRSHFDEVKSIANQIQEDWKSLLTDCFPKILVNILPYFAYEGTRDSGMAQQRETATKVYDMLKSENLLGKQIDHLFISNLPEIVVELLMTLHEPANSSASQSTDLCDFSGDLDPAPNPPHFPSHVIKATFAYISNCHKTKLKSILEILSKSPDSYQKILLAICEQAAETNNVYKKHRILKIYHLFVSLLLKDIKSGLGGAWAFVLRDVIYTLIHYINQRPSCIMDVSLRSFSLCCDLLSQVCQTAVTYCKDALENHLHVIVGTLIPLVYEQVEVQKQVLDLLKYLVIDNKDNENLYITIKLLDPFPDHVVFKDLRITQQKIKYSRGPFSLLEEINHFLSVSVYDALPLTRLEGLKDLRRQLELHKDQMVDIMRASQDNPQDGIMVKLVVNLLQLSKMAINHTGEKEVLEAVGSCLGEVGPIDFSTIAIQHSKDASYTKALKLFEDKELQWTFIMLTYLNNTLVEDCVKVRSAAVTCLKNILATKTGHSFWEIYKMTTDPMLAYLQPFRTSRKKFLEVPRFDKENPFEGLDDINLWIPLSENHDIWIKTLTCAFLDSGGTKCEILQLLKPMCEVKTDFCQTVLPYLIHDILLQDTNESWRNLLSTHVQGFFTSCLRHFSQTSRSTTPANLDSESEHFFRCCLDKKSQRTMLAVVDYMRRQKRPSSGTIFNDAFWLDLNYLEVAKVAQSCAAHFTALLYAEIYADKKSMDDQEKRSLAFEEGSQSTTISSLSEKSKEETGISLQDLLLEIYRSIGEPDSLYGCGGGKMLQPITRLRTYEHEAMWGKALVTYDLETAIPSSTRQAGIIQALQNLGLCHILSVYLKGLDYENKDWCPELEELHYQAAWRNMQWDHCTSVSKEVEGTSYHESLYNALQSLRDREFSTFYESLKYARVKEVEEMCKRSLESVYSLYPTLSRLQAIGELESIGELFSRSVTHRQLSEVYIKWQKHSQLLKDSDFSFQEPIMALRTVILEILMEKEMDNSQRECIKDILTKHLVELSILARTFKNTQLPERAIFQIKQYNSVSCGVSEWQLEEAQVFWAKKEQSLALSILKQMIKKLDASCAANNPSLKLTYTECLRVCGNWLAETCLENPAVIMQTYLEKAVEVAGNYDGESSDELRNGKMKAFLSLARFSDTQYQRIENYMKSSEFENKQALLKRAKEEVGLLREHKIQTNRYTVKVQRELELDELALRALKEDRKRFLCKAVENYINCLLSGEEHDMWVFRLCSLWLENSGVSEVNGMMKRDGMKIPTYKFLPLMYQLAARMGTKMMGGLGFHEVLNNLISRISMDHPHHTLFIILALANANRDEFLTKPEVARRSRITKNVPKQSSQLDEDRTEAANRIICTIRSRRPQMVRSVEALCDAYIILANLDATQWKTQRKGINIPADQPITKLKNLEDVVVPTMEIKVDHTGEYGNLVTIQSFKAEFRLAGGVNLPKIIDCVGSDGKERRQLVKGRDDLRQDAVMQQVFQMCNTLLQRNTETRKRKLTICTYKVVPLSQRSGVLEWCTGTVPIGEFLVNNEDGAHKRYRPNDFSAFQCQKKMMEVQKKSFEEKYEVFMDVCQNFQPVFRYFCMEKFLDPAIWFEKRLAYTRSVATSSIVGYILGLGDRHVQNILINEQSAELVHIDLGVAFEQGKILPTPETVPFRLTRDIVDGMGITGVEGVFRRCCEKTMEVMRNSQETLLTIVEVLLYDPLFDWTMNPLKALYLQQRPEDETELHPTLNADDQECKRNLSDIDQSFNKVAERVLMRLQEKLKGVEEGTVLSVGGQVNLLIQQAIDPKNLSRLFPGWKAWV

Structure (SMILES): C[C@@H]1CNc2c(-c3ccc(OCCCN4CCCCC4)nc3)ccc3ncc4c(c23)n1c(=O)n4C [Example A-199, (R)-2,10-dimethyl-7-(6-(3-(piperidin-1-yl)propoxy)pyridin-3-yl)-2,8,9,10-tetrahydro-1H-2,4,8,10a-tetraazanaphtho[2,1,8-cde]azulen-1(2H)-one]
- IC50 (ATM-phosphorylated KAP1): 0.78 nM
- IC50 (ATM): 0.92 nM

Structure (SMILES): C[C@H]1CNc2c(-c3ccc(OCCCN4CCCCC4)nc3)c(F)cc3ncc4c(c23)n1c(=O)n4C [Example A-191, (S)-6-fluoro-2,10-dimethyl-7-(6-(3-(piperidin-1-yl)propoxy)pyridin-3-yl)-2,8,9,10-tetrahydro-1H-2,4,8,10a-tetraazanaphtho[2,1,8-cde]azulen-1(2H)-one]
- D 17 TGI [1, 3]: 76.9%
- D 17 TV (MEAN ± SD) [1, 3]: 347 ± 64***^ mm^3
- IC50 (ATM): 0.69 nM

Structure (SMILES): Cn1c(=O)n2c3c4c(c(-c5ccc(OCCCN6CCCCC6)nc5)c(F)cc4ncc31)OCC2(C)C [Example A-6, 6-fluoro-2,10,10-trimethyl-7-(6-(3-(piperidin-1-yl)propoxy)pyridin-3-yl)-9,10-dihydro-8-oxa-2,4,10a-triazanaphtho[2,1,8-cde]azulen-1(2H)-one]
- inhibitory effect on tumor volume and tumor weight, in words [2]: higher than those of AZD1390
- D 16 TGI [2]: 100.4%
- D 16 TV (MEAN ± SD) [2]: 163.8 ± 62.8***^### mm^3
- Tumor weight [2]: 0.12 ± 0.03 g
- Tumor weight inhibitory rate [2]: 82.4%
- IC50 (ATM): 0.37 nM

Structure (SMILES): CN(C)CCCOc1ccc(-c2c(F)cc3ncc4c5c3c2OCC(C)(C)n5c(=O)n4C)cn1 [Example A-46, 7-(6-(3-(dimethylamino)propoxy)pyridin-3-yl)-6-fluoro-2,10,10-trimethyl-9,10-dihydro-8-oxa-2,4,10a-triazanaphtho[2,1,8-cde]azulen-1(2H)-one]
- inhibitory effect on tumor volume and tumor weight, in words [2]: higher than those of AZD1390
- D 16 TGI [2]: 102.2%
- D 16 TV (MEAN ± SD) [2]: 149.5 ± 67.4***^### mm^3
- Tumor weight [2]: 0.12 ± 0.06 g
- Tumor weight inhibitory rate [2]: 82.0%
- IC50 (ATM): 0.52 nM

Structure (SMILES): Cn1c(=O)n2c3c4c(c(-c5ccc(OCCCN6CCCCC6)nc5)c(F)cc4ncc31)OC[C@H]2Cc1ccccc1 [Example A-14, (R)-10-benzyl-6-fluoro-2-methyl-7-(6-(3-(piperidin-1-yl)propoxy)pyridin-3-yl)-9,10-dihydro-8-oxa-2,4,10a-triazanaphtho[2,1,8-cde]azulen-1(2H)-one]
- IC50 (ATM): 0.42 nM

Structure (SMILES): COc1cc2ncc3c4c2c(c1-c1cnn(C)c1)OCC(c1ccccn1)n4c(=O)n3C (stereo not drawn) [Example A-30, 6-methoxy-2-methyl-7-(1-methyl-1H-pyrazol-4-yl)-10-(pyridin-2-yl)-9,10-dihydro-8-oxa-2,4,10a-triazanaphtho[2,1,8-cde]azulen-1(2H)-one]
- IC50 (ATM): 0.27 nM

Structure (SMILES): CC[C@H]1COc2c(-c3ccc(OCCCN(C)C)nc3)ccc3ncc4c(c23)n1c(=O)n4C [Example A-189, (S)-7-(6-(3-(dimethylamino)propoxy)pyridin-3-yl)-10-ethyl-2-methyl-9,10-dihydro-8-oxa-2,4,10a-triazanaphtho[2,1,8-cde]azulen-1(2H)-one]
- IC50 (ATM): 0.38 nM

Structure (SMILES): CC[C@@H]1COc2c(-c3ccc(OCCCN4CCCCC4)nc3)ccc3ncc4c(c23)n1c(=O)n4C [Example A-187, (R)-10-ethyl-2-methyl-7-(6-(3-(piperidin-1-yl)propoxy)pyridin-3-yl)-9,10-dihydro-8-oxa-2,4,10a-triazanaphtho[2,1,8-cde]azulen-1(2H)-one]
- IC50 (ATM): 0.22 nM

Structure (SMILES): CC[C@H]1CNc2c(-c3ccc(OCCCN4CCCCC4)nc3)c(F)cc3ncc4c(c23)n1c(=O)n4C [Example A-196, (S)-10-ethyl-6-fluoro-2-methyl-7-(6-(3-(piperidin-1-yl)propoxy)pyridin-3-yl)-2,8,9,10-tetrahydro-1H-2,4,8,10a-tetraazanaphtho[2,1,8-cde]azulen-1(2H)-one]
- IC50 (ATM): 0.51 nM

Structure (SMILES): C[C@H]1COc2c(-c3ccc(N4CCC(N(C)C)CC4)nc3)c(F)cc3ncc4c(c23)n1c(=O)n4C [Example A-159, (S)-7-(6-(4-(dimethylamino)piperidin-1-yl)pyridin-3-yl)-6-fluoro-2,10-dimethyl-9,10-dihydro-8-oxa-2,4,10a-triazanaphtho[2,1,8-cde]azulen-1(2H)-one]
- IC50 (ATM): 0.92 nM

Structure (SMILES): Cn1c(=O)n2c3c4c(c(-c5ccc(OCCCN6CCCCC6)nc5)c(F)cc4ncc31)NCC21CCC1 [Example A-192, 6-fluoro-2-methyl-7-(6-(3-(piperidin-1-yl)propoxy)pyridin-3-yl)-8,9-dihydrospiro[2,4,8,10a-tetraazanaphtho[2,1,8-cde]azulene-10,1′-cyclobutan]-1(2H)-one]
- IC50 (ATM-phosphorylated KAP1; Homo sapiens, light or radiation study): 1.44 nM
- D 17 TGI [1, 4]: 79.6%
- D 17 TV (MEAN ± SD) [1, 4]: 323 ± 114***^# mm^3
- IC50 (ATM): 0.53 nM
